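These data come from cells grown in 96-well plates and exposed to compound for 48 hours at five concentrations. GI50 is the concentration that inhibits growth by half. TGI denotes the concentration required for complete inhibition of growth.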
Tests used:
Assay in all cases: NCI-60 cell line screen, 48 h
[1] = test system: HT29 colon
[2] = test system: KM12 colon
[3] = test system: NCI-H522 lung
[4] = test system: PC-3 prostate
[5] = test system: SF-268 CNS
[6] = test system: SF-295 CNS
[7] = test system: SW-620 colon
[8] = test system: U251 CNS

In the case of `ClC1=C(Cl)C(Cl)(C2(Cl)C(Cl)=C(Cl)C(Cl)=C2Cl)C(Cl)=C1Cl`, the GI50 [1] is reported as 0.242 µM, the TGI [1] is reported as 0.617 µM and the GI50 [2] is reported as 2.04 µM. It also gave a TGI [2] of 4.32 µM, a GI50 [3] of 0.16 µM and a TGI [3] of 0.341 µM. The GI50 [4] was 0.975 µM, the TGI [4] was 2.95 µM and the GI50 [5] was 1.28 µM. For the same compound, the TGI [5] was 4.05 µM, the GI50 [6] was 2.05 µM and the TGI [6] was 4.14 µM. For the same compound, the GI50 [7] was 0.19 µM, the TGI [7] was 0.391 µM and the GI50 [8] was 1.51 µM. It also gave a TGI [8] of 6.91 µM.

`O=C(N/N=C/c1ccc(Cl)cc1)c1ccc(NC(=O)c2ccccn2)cc1` gave a GI50 [1] of over 100 µM, a TGI [1] of over 100 µM and a GI50 [2] of 31 µM. For the same compound, the TGI [2] was over 100 µM, the GI50 [3] was 31.5 µM and the TGI [3] was over 100 µM. The GI50 [4] was 17 µM, the TGI [4] was over 100 µM and the GI50 [5] was 16.1 µM. For the same compound, the TGI [5] was 95 µM, the GI50 [6] was 28.7 µM and the TGI [6] was over 100 µM. The GI50 [7] was 59 µM, the TGI [7] was over 100 µM and the GI50 [8] was 6.45 µM. For the same compound, the TGI [8] was 23.3 µM.

`O=C(NCc1cn(Cc2cccc(Oc3ccccc3)c2)nn1)c1cccnc1Nc1ccc(F)cc1` showed a GI50 [1] of 5.6 µM, a TGI [1] of over 100 µM and a GI50 [2] of 5.61 µM. For the same compound, the TGI [2] was over 100 µM, the GI50 [3] was 10.8 µM and the TGI [3] was over 100 µM. It also gave a GI50 [4] of 20.4 µM, a TGI [4] of over 100 µM and a GI50 [5] of 21 µM. It also gave a TGI [5] of over 100 µM, a GI50 [6] of 5.66 µM and a TGI [6] of 47.6 µM. It also gave a GI50 [7] of 6.58 µM, a TGI [7] of over 100 µM and a GI50 [8] of 7.12 µM. For the same compound, the TGI [8] was over 100 µM.

Compound `O=C1NN2CC(c3ccccc3)=NN=C2c2ccccc21` has a GI50 [1] of 24.7 µM, a TGI [1] of 49 µM and a GI50 [2] of 31.9 µM. It also gave a TGI [2] of over 100 µM, a GI50 [3] of 34.7 µM and a TGI [3] of 77.1 µM. It also gave a GI50 [4] of 12.6 µM, a TGI [4] of 33.8 µM and a GI50 [5] of 26.8 µM. It also gave a TGI [5] of 82.3 µM, a GI50 [6] of 32.8 µM and a TGI [6] of over 100 µM. The GI50 [7] was 33 µM, the TGI [7] was over 100 µM and the GI50 [8] was 18 µM. The TGI [8] was 33.9 µM.

With `C[N+]1([O-])C2CCC1CC(OC(=O)C(CO)c1ccccc1)C2` (stereo not drawn) the TGI [1] was over 100 µM, the TGI [2] was over 100 µM and the TGI [3] was over 100 µM. It also gave a TGI [4] of over 100 µM, a TGI [5] of over 100 µM and a TGI [6] of over 100 µM. For the same compound, the TGI [7] was over 100 µM and the TGI [8] was over 100 µM.

`N#CC1=C(N)Oc2c(sc3c(Br)cccc23)C1c1ccc([N+](=O)[O-])cc1` (stereo not drawn) was tested, and the GI50 [1] was 0.297 µM, the TGI [1] was 3.2 µM and the GI50 [2] was 0.0997 µM. The TGI [2] was 9.36 µM, the GI50 [3] was 0.0216 µM and the TGI [3] was 0.616 µM. It also gave a GI50 [4] of 0.11 µM, a TGI [4] of 13.6 µM and a GI50 [5] of 0.547 µM. It also gave a TGI [5] of 10.7 µM, a GI50 [6] of 0.0417 µM and a TGI [6] of 11.1 µM. For the same compound, the GI50 [7] was 0.0708 µM, the TGI [7] was 14.5 µM and the GI50 [8] was 0.151 µM. The TGI [8] was 11.8 µM.
